Data taken from the NIST ThermoML archive (doi:10.1021/acs.jced.7b00722).

What was measured:
[1] = wn = mass fraction of the nth substance listed; details: 298.15 K, 100 kPa, Liquid; for viscosity: Falling or rolling sphere viscometry; for mass density: Vibrating tube method
[2] = refractive index (Na D-line) (dimensionless); wn = mass fraction of the nth substance listed; details: 298.15 K, 100 kPa, Liquid, Standard Abbe refractometry
[3] = 298.15 K; 100 kPa; Liquid; Falling or rolling sphere viscometry
[4] = refractive index (Na D-line) (dimensionless); details: 298.15 K; 100 kPa; Liquid; Standard Abbe refractometry

O [water] + O=C([O-])[C@H](O)[C@@H](O)C(=O)[O-].[K+].[K+]
w2 = 0
Details	refractive index	viscosity [mPa·s]
[1]	–	0.894
[2]	1.3327	–

O=C([O-])[C@H](O)[C@@H](O)C(=O)[O-].[K+].[K+] [dipotassium L-tartrate] + O
Details	mass density, [1] [kg/m3]	refractive index, [2]	viscosity, [1] [mPa·s]
w1 = 0.02	1006	1.3345	0.929
w1 = 0.04	1019.6	1.3374	0.965
w1 = 0.06	1033.3	1.3403	0.998
w1 = 0.08	1046.9	1.3432	1.04
w1 = 0.1	1060.6	1.3461	1.09
w1 = 0.15	1094.7	1.3533	1.191
w1 = 0.2	1128.9	1.3606	1.313
w1 = 0.25	1163	1.3678	1.46
w1 = 0.3	1197.1	1.375	1.59
w1 = 0.4	1265.4	1.3895	1.91

O [water]
Details	refractive index	viscosity [mPa·s]
[3]	–	0.894
[4]	1.3327	–
